The test system of one assay is CCRF-CEM. Put plainly: Cytotoxicity in human CCRF-CEM cells by resazurin reduction assay. In kind it is functional, cell-based. A general note: The colour change of resazurin is a common sign of viable cells or microbes.
Assay [1] concerns K562. Put plainly: Cytotoxicity in human K562 cells by SRB assay. In kind it is functional, cell-based. On the technique in general: The SRB assay estimates cell density from bound dye.
Assay [2] relates to K562. The assay can be described thus: Cytotoxicity in human K562 cells after 24 hrs by trypan blue exclusion assay. Type of assay: functional, cell-based. The conditions noted are these: K562, 24 h.
A short description of assay [3]: Inhibition of nuclear factor-kappa-B (unknown origin) expressed in human K562 cells pre-incubated for 2 hrs followed by TNFalpha stimulation for 6 hrs by luciferase reporter gene assay. Type of assay: cell-based. (Reporter assays use an easily measured gene product as a stand-in for the process of interest.)
In a further assay the test system is Caco-2. The assay can be described thus: Cytotoxicity in human Caco2 cells after 72 hrs by MTT assay. Type of assay: functional, cell-based. The conditions noted are these: Caco-2, 72 h.
Another assay deals with A-375. Put plainly: Cytotoxicity in human A375 cells. In kind it is functional, cell-based.

Molecules are shown by their SMILES. Converted amounts (≈) assume the structure as drawn.

Consider `COc1cc(O)c(OC)c(O)c1C(=O)/C=C/c1ccccc1`, for which, in the assay on CCRF-CEM, the IC50 was not above 10 µM.

As to `C[C@@H]1O[C@@H](Oc2c(-c3cc(O)c(O)c(O)c3)oc3cc(O)cc(O)c3c2=O)[C@H](O)[C@H](OC(=O)c2cc(O)c(O)c(O)c2)[C@H]1O`, the IC50 in the assay on K562 [1] is 30.5 µg/mL.

The molecule `COc1cc(O)cc(OC)c1C(=O)/C=C/c1ccccc1` came in with an IC50 in the assay with CCRF-CEM not above 10 µM.

`CC1=Cc2c(C(C)C)ccc(C)c2C(=O)C1=O` yielded a half-inhibitory concentration (IC50) in the assay on K562 [1] of 1.45 µM.

`C[C@H]1O[C@H](Oc2c(-c3ccc(O)cc3)oc3cc(O)cc(O)c3c2=O)[C@@H](O)[C@@H](O)[C@@H]1O` (single isomer, unassigned) [KAEMPFEROL-3-O-RHAMNOSIDE]: the results for the IC50 (with K562 [2]; in assay [3]) were 15.2 µM and 4.1 µM, respectively.

In the assay on CCRF-CEM, `COc1cc(O)cc(O)c1C(=O)/C=C/c1ccccc1` [CARDAMOMIN] had an IC50 not above 10 µM.

With `O=c1cc(-c2ccccc2)oc2cc(O)cc(O)c12` [CHRYSIN], the IC50 in the assay on Caco-2 turned out to be 9.5 µM.

As for `O=c1cc(-c2ccccc2)oc2ccccc12` [FLAVONE], in the assay on Caco-2, the midpoint of inhibition, the IC50, lay at 21 µM.

`O=c1c(O)c(-c2ccccc2)oc2ccccc12` [FLAVONOL]: the IC50 in the assay on Caco-2 came out at 42.1 µM.

Turning to `O=c1[nH]cc(F)c(=O)[nH]1` [FLUOROURACIL], in the assay on Caco-2, inhibition was half-maximal at 60 µM (IC50).

Molecule `O=C1c2ccc(O)cc2O[C@H](c2ccc(O)c(O)c2)[C@H]1O` [FUSTIN] yielded an IC50 with K562 [1] of more than 100 µg/mL.

For `COc1ccc([C@@H]2CC(=O)c3c(O)cc(O)cc3O2)cc1O` [HESPERETIN], the IC50 in the assay on Caco-2 was found to be 66.7 µM.

Molecule `O=c1c(O)c(-c2ccc(O)cc2)oc2cc(O)cc(O)c12` [KAEMPFEROL] yielded an IC50 in the assay on A-375 of 0.012 µg/mL (≈ 0.0421 µM).

In the assay on A-375, `O=c1c(O)c(-c2ccc(O)c(O)c2)oc2cc(O)cc(O)c12` [QUERCETIN] registered an IC50 of 0.00154 µg/mL (≈ 0.0051 µM).

For orientation: IC50 means the point on the concentration scale where inhibition reaches its midpoint. Low readings indicate greater potency in that assay, high ones weaker potency in that assay.

Values taken from ChEMBL document CHEMBL4270499, “Recent discoveries of anticancer flavonoids” (Eur J Med Chem, 2017).
